Literature values in PMC11215690 (Clinical and Translational Science, 2024).

Test system: healthy participants
Conditions: studies of healthy participants

SMILES	most frequently reported TEAEs
O=C(c1nc2n(n1)[C@H](c1ccccc1)C[C@@H]2F)C1CC1 [GDC‐8264]	headache and skin reaction of contact dermatitis
CN1C(=O)[C@@H](NC(=O)c2nnc(Cc3ccccc3)[nH]2)COc2ccccc21 [GSK2982772]	headache and skin reaction of contact dermatitis
